Results from patent US20230117361A1, “COMPOSITION COMPRISING MIR-335” (AGENCY FOR SCIENCE, TECHNOLOGY AND RESEARCH, priority 2019, published 2023).

Tests used:
AD-like symptoms = details: mice, two independent studies [24, 25]; cited from earlier work
N/TERT-1 keratinocytes [1] = assay: Expression of MEST and keratinocyte differentiation markers (IVL, SPRR2F, TGM1) in N/TERT-1 cells treated with HDAC inhibitors; type: cell-based, human
Procedure: Cells were fixed and permeabilized with ice-cold acetone/methanol for 10 minutes. After washing in phosphate buffered saline (PBS), the cells were incubated with 10% goat serum for 30 minutes. The cells were subsequently incubated with primary antibodies for 2 hours at room temperature or overnight at 4° C. After washing three times with PBS with 0.1% Tween 20, the cells were incubated in dark with Alexa Fluor secondary antibodies (Invitrogen) for an hour. Nuclei were stained using DAPI. After washing with PBS, the cells were mounted onto slides with FluorSave reagent (EMD Millipore). Images were taken with an FV1000 inverted confocal microscope (Olympus) using Olympus FluoView.
(§1) Total RNA was isolated using miRCURY™ RNA isolation kit (Exiqon). For miRNA quantification, cDNA was synthesized using Taqman® miRNA reverse transcription kit (Life Technologies) and the expression level of miRNAs was quantified by TaqMan Gene Expression Assays (Applied Biosystems) in 7900 fast RT-PCR system (Applied Biosystems) using Taqman miRNA-specific primers. For mRNA expression, cDNA was synthesized using SuperScript® III Reverse Transcriptase (Life Technologies) according to manufacturer's protocol. The expression levels of mRNAs were measured using SYBR green PCR Master Mix (Applied Biosystems). U6 and RPLP0 were used as endogenous normalization controls for miRNA and protein-coding genes, respectively. The expression of a gene/miRNA was defined from threshold cycle (Ct), and relative transcript abundance was calculated using ddCT method. All reactions were run in triplicates. The primers were designed using the Primer3 software and the NCBI design primer tools. The primers were checked for their GC content and any secondary structure formation using OligoCalc.
A panel of 42 HDAC inhibitors (HDACi) covering the majority of type I, II and pan HDACis were purchased from Selleckchem. N/TERT-1 grown to confluence were treated with HDACi at a final concentration of 1 μM from a 100 μM stock. Control wells were treated with DMSO at a final concentration of 1%. […]

human skin biopsies = assay: Ex-vivo human skin organ culture model, topical treatment
Procedure: (§2) Paraffin wax-embedded skin tissue sections (5 μm) were dewaxed, rehydrated and boiled in pre-treatment solution (Panomics) for 5 minutes and subsequently treated with protease (Panomics) for 30 minutes at 37° C. Locked nucleic acid (LNA) probes were then added to the sections and incubated at 51° C. for 4 hours. The LNA probes used are specific to miR-335 and scrambled (non-targeting) sequences and are 5′ and 3′ digoxigenin- (DIG-) labelled. After washing the sections sequentially with 5× saline-sodium citrate (SSC), 1×SSC and 0.3×SSC buffer, they were blocked with 10% goat serum and incubated with anti-DIG alkaline phosphatase (Roche) overnight at 4° C. Fast Red Substrate (Panomics) were used to detect miRNA-bound LNA probes. Tissue sections were counterstained with 4′,6-diamidino-2-phenylindole dihydrochloride (DAPI) (Sigma-Aldrich) and mounted with FluorSave™ reagent (EMD Millipore). The slides were examined with an FV1000 inverted confocal microscope (Olympus) and images were acquired using Olympus FluoView with TRITC and DAPI filters.
Paraffin wax-embedded skin tissue sections (5 μm) were dewaxed and rehydrated through decreasing concentration of ethanol. Endogenous peroxidases in tissue sections were quenched by 3% H2O2 in absolute methanol for 30 minutes. The sections were then boiled in antigen retrieval solution (pH 6, DAKO). Sections were then blocked in 10% goat serum for 30 minutes and incubated with primary antibodies overnight at 4° C. After incubation with primary antibodies, tissues were incubated with anti-rabbit or -mouse Envision-labelled polymer reagents (DAKO) for 1 hour at room temperature. The staining was visualized by 3,3′-diaminodbenzidine (DAB) substrate chromogen kit (DAKO). Slides were counterstained with haematoxylin and examined with a Zeiss AxioImager Z1 upright light microscope after mounting with CytosealTM60 mounting medium (Richard Allan Scientific). Images were acquired using Zeiss Zen software.
as §1, with “U6 and RPLP0 were used as endogenous normalization controls for miRNA and protein-coding genes, respectively.” left out, “All reactions were run in triplicates. The primers were designed using the Primer3 software and the NCBI design primer tools. The primers were checked for their GC content and any secondary structure formation using OligoCalc.” left out

N/TERT-1 keratinocytes [2] = assay: Cornified envelope assay; type: cell-based, human; details: N/TERT-1 treated with HDAC inhibitor vs control, FIG. 6C, 6D
Procedure: N/TERT-1 keratinocytes were grown in DF-K media until confluent, and then shifted to high Ca^2+ conditions (1.5 mM) for a further 7 days in fresh DF-K media to induce terminal differentiation and cornified envelope formation, and the number of cornified envelopes (CEs) assessed following the method of Rice et al. In brief, cells were trypsinized and resuspended at 2.0×10^6 cells/ml in dissociation buffer containing 0.1 M Tris-HCl buffer pH 8.0, 2% SDS and 20 mM dithiothreitol. CEs were harvested by boiling the samples for 15 minutes at 100° C. Detergent- and reducing agent-resistant CEs were collected as an insoluble pellet by centrifugation at 4000×g for 10 minutes. CEs were counted with a hemocytometer, and CE formation was expressed as a percentage of input cell number.

miR-335 = miR-335 expression in N/TERT-1 cells treated with HDAC inhibitors (qRT-PCR, in situ hybridization); type: cell-based, human
Procedure: as §2, with “Tissue sections were counterstained with 4′,6-diamidino-2-phenylindole dihydrochloride (DAPI) (Sigma-Aldrich) and mounted with FluorSave™ reagent (EMD Millipore). The slides were examined with an FV1000 inverted confocal microscope (Olympus) and images were acquired using Olympus FluoView with TRITC and DAPI filters.” left out
Total RNA was isolated using miRCURY™ RNA isolation kit (Exiqon). For miRNA quantification, cDNA was synthesized using Taqman® miRNA reverse transcription kit (Life Technologies) and the expression level of miRNAs was quantified by TaqMan Gene Expression Assays (Applied Biosystems) in 7900 fast RT-PCR system (Applied Biosystems) using Taqman miRNA-specific primers. […] The expression levels of mRNAs were measured using SYBR green PCR Master Mix (Applied Biosystems). […] The expression of a gene/miRNA was defined from threshold cycle (Ct), and relative transcript abundance was calculated using ddCT method. […]

N/TERT-1 cells = assay: HDAC inhibitor screening: toxicity, growth arrest and differentiation; type: cell-based, human; details: HDACi 1 μM, 48 hrs
Procedure: A panel of 42 HDAC inhibitors (HDACi) covering the majority of type I, II and pan HDACis were purchased from Selleckchem. N/TERT-1 grown to confluence were treated with HDACi at a final concentration of 1 μM from a 100 μM stock. Control wells were treated with DMSO at a final concentration of 1%. After 48 hrs of treatment, cells were either processed for total RNA isolation or fixed and stained for human involucrin by immunocytochemistry.

[3] = test system: promoter region of miR-335 and MEST; assay: Chromatin immunoprecipitation (ChIP)-qPCR at the promoter region of miR-335 and MEST; type: cell-based, human
Procedure: Cells were crosslinked with 1.5% formaldehyde for 10 minutes at 37° C. The reaction was stopped by adding glycine to the final concentration of 125 mM for 5 minutes at 37° C. Fixed cells were washed twice with ice-cold PBS, scraped and centrifuged. The pellets were then incubated with Buffer A (10 mM HEPES Ph7.9, 10 mM KCl, 0.1 mM EGTA, 1 mM DTT and 0.5 mM PMSF) supplemented with 1×protease inhibitor cocktail (Roche) and 10% glycerol on ice for 30 min, followed by 0.5% NP-40 for 5 minutes to lyse cytoplasmic membrane. The cells were then centrifuged at 1500×g for 5 minutes to pellet down nuclei. Nuclear pellet was then lysed in ChIP buffer (50 mM Tris pH 7.4, 150 mM NaCl, 5 mM EDTA, 0.5% NP-40, 1% Triton X-100, 0.05% SDS, 1×protease inhibitor cocktail). Nuclear chromatin was sheared by sonication for 15 min (30 sec on and 30 sec off) in Bioruptor® water bath sonicator. The sonicated samples were centrifuged, and the supernatant containing the sheared chromatin was harvested. For each ChIP reaction, 250 μl of chromatin extract was incubated with appropriate antibodies at 4° C. overnight on a rotary wheel. 50 μl of Protein A sepharose resin (precoated with 0.5% BSA and 0.2 mg/mL tRNA) was then added to the immunoprecipitated samples and incubated for 2 hours. […] Fold enrichment of the genes was calculated using ddCt method with input Ct values as normalization control.

## CC(/C=C/C(=O)NO)=C\[C@@H](C)C(=O)c1ccc(N(C)C)cc1 [TSA, trichostatin A]
AD-like symptoms
  development of AD-like symptoms: suppress the development of AD-like symptoms

## O=C(/C=C/c1cccc(S(=O)(=O)Nc2ccccc2)c1)NO [belinostat, (E)-N-hydroxy-3-(3-(N-phenylsulfamoyl)phenyl)acrylamide]
N/TERT-1 keratinocytes [1]; N/TERT-1 cells vs control cells, FIG. 6B lower panel
  expression of IVL by immunocytochemistry: significant expression of IVL
Human skin biopsies; human skin biopsies vs mock treated skin, FIG. 6F
  expression of miR-335 in epidermal layers by in situ hybridization: higher expression of miR-335
Human skin biopsies; human skin biopsies, FIG. 6G
  levels of IVL by immunohistochemistry: significant increase in the levels of IVL
Human skin biopsies; human skin biopsies, FIG. 11
  filaggrin (FLG) protein by immunohistochemistry: induced significant levels of filaggrin
Human skin biopsies; human skin biopsies, topical in acetone, 1 mM, daily for six days, FIG. 6E
  expression of miR-335 by quantitative RT-PCR: significant expression of miR-335
N/TERT-1 keratinocytes [2]
  number of cornified envelopes (CEs): increased number of CEs
miR-335; N/TERT-1 cells, FIG. 6B upper panel
  expression of miR-335 by in situ hybridization: Induced expression of miR-335
N/TERT-1 cells
  toxicity: low toxicity

## CCCC(=O)[O-].[Na+] [sodium butyrate]
N/TERT-1 keratinocytes [1]; N/TERT-1, qRT-PCR, FIG. 5C
  relative expression of MEST: significantly increased MEST expression
N/TERT-1 keratinocytes [1]; N/TERT-1, qRT-PCR, FIG. 5F
  relative transcript abundance of differentiation markers IVL, SPRR2F and TGM1: significant upregulation
miR-335; N/TERT-1 keratinocytes, qRT-PCR, FIG. 5B
  relative expression of miR-335: significant miR-335 upregulation
[3]; N/TERT-1, ChIP, FIG. 5D
  enrichment of H3K4ac at the upstream region of MEST and miR-335: significant increase in the enrichment of H3K4ac
[3]; keratinocytes, ChIP
  HDAC2 enrichment in the promoter region of miR-335: reduced
